# Earlier results, collected in patent US20040186084A1, “Triamcinolone formulations and methods for their preparation and use” (Akorn, Inc., priority 2003, published 2004).
compound,measurement,setting,value
"CC1(C)O[C@@H]2C[C@H]3[C@@H]4CCC5=CC(=O)C=C[C@]5(C)[C@@]4(F)[C@@H](O)C[C@]3(C)[C@]2(C(=O)CO)O1 [triamcinolone acetonide, (11β,16α)-9-fluoro-11,21-dihydroxy-16,17-[1-methylethylidenebis(oxy)]pregna-1,-4-diene-3,20-dione]",solubility in organic solvents,"methanol, acetone and ethyle acetate",sparingly soluble
same,solubility in water,water,relatively insoluble
